Reference: the NIST ThermoML archive (doi:10.1021/je101131x)
Numbers after ± are expanded uncertainties.

Details: Liquid

Row | Structure (SMILES) | vapor or sublimation pressure (323.15 K) | vapor or sublimation pressure (333.15 K) | vapor or sublimation pressure (343.15 K) | vapor or sublimation pressure (353.15 K)
1 | CC(=O)O [acetic acid] | 7.567 ± 0.41 kPa | 12.04 ± 0.51 kPa | 18.66 ± 0.67 kPa | 28.2 ± 0.89 kPa
2 | CCCOC(C)=O [propyl ethanoate] | 16.09 ± 0.61 kPa | 24.01 ± 0.8 kPa | 34.99 ± 1.1 kPa | 49.92 ± 1.4 kPa
